The source of these data is US20250162989A1, “USP30 INHIBITORS AND USES THEREOF” (Vincere Biosciences, Inc., priority 2021, published 2025).

Data set [1] has as its system Tom20 loss in differentiated RenCell VM. Put plainly: In-cell Tom20 loss assay. The format is cell-based. The following applies: 20 h after compound addition. Here is the method: To evaluate Tom20 loss following treatment with compounds and/or antimycin/oligomycin, a 96-well plate assay was performed on differentiated RenCell VM. These were seeded into laminin-coated 96-well plates at 5000 cells/well in normal growth medium (ReNcell NSC maintenance medium+20 ng/ml FDF-2 and 20 ng/ml EGF). After 3 days, growth medium was replaced with differentiation medium (ReNCell NSC medium+0.1 mM dibutyryl cAMP and 2 ng/ml GDNF). On days 1 and 4 following addition of differentiation medium, the media was removed and replaced with fresh differentiation medium. […] After again washing with PBS, cells were imaged using GE INCell 6000 at 40× and quantified using HCA-based quantification algorithm of fluorescence density×area normalized to the number of nuclei.

For data set [2], the target named is recombinant USP30 (amino acids 57-517 of the human sequence) (Homo sapiens (Human), UniProt Q70CQ3). Put plainly: In vitro USP30 biochemical assay (Ubiquitin-Rhodamine substrate). The following applies: fluorescence. Here is the method: In vitro biochemical assay to establish the potency of compounds for USP30 inhibition: a 384-well plate assay using a fluorophore tagged substrate of USP30 was used for in vitro screening of compounds. Each compound was tested at
Sequence of recombinant USP30 (amino acids 57-517 of the human sequence) (Q70CQ3 57-517): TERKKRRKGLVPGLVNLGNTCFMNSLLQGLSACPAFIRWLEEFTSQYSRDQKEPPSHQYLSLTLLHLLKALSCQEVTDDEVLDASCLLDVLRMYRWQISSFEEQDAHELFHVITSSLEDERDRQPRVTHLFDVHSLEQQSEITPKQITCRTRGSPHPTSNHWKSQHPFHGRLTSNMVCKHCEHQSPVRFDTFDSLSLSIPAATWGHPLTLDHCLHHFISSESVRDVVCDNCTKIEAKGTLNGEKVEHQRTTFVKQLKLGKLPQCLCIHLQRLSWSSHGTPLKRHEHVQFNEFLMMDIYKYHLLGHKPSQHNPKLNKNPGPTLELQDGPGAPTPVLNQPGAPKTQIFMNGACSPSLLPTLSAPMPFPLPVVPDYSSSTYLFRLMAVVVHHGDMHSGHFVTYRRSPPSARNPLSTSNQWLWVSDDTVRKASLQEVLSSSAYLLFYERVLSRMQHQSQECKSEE
10 different concentrations (0.5 to 10,000 nM) in duplicate wells. […] Data were analyzed using Graph Pad Prism software with a four-parameter (floating slope) fit to log concentration data to determine IC50s.

A further data set has as its target USP30 (Homo sapiens (Human), UniProt Q70CQ3). In words: Dundee MALDI-TOF mass spectrometry assay (K48-linked diubiquitin cleavage). The class given is biochemical. The following applies: USP30 25 ng/μl, K48-linked diubiquitin 5.6 μM. On the procedure:
USP30 was diluted in a buffer containing 40 mM Tris, 0.01% BSA, 1 mM DTT and K48 in 40 mM Tris, 0.01% BSA.
The compounds were pre-incubated with the USP30 for 5 mins at room temp before the K48 dimer addition. The assay mixture was then incubated for 45 mins at room temp. The assay was stopped by the addition of TFA to a final concentration of 2% (v/v).
Acidified samples of the DUB assays were mixed with 0.5 mM 15N-ubiquitin and then with one part of 2% (v/v) TFA and one part of 2.5 DHAP matrix solution (7.6 mg of 2.5 DHAP in […] ethanol and […] of an aqueous 12 mg ml 1 diammonium hydrogen citrate).

Data set [3] is described as follows: Metabolic stability and intrinsic clearance in liver microsomes (human). The class given is in vitro ADME. The following applies: 37° C. On the procedure: (§1) Test compounds were incubated with microsomes supplemented with co-factors at 37° C. Typical conditions were: compound concentration of 1 μM and 5 sampling time-points (0, 15, 30, 45 and 60 minutes), in duplicates. At each time-point, the reactions were terminated by the addition of organic solvent. The samples were centrifuged and the parent compound concentration was evaluated by LC-MS/MS measurements.

Data set [4] can be described thus: Metabolic stability and intrinsic clearance in liver microsomes (mouse). The format is in vitro ADME. The following applies: 37° C. On the procedure: as §1
Data set [5] in a line: Metabolic stability and intrinsic clearance in liver microsomes (rat). Particulars: 37° C. The class given is in vitro ADME. Here is the method:
as §1

The next data set is described as follows: Kinetic solubility. The class given is physicochemical. Particulars: 100 mM PBS, 1 hour at room temperature. Here is the method:
To 396 μL of a 100 mM phosphate buffered saline (PBS) was added 4 μL of a 10 mM stock solution of the compound. The mixture was shaken at 1000 rpm for 1 hour at room temperature. […] Compound concentration was calculated by comparison to a standard calibration curve. The assay was done in duplicate. The results are reported in μMol.

Setting [6] is: […] recombinant USP30, 25 nM Ubiquitin-Rhodamine.
The mark [7] stands for this setting: 1.5 nM recombinant USP30, 25 nM Ubiquitin-Rhodamine.

Where two headings read alike, the source gives them in different places.

Sequence of USP30 (Q70CQ3 whole entry): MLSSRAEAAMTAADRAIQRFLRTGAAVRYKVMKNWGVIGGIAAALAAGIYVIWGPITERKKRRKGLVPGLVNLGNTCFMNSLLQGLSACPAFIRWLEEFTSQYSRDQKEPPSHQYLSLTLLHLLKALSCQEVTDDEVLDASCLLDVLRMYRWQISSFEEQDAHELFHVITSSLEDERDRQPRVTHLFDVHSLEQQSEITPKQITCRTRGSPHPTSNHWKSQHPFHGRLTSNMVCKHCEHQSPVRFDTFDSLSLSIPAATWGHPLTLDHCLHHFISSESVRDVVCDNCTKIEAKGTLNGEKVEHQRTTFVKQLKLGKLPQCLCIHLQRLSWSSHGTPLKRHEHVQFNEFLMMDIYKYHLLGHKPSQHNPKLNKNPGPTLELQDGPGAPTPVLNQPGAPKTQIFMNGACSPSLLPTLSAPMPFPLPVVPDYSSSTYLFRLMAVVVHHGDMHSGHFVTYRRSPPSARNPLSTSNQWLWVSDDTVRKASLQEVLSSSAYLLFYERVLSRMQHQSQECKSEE

Regarding `CC(C)(C)NS(=O)(=O)c1ccc(NC(=O)[C@H](CC2CCOCC2)NC(=O)c2ccc(F)cc2)cc1` [Compound I-1], the results for the IC50 (in data set [1]; in data set [2] (setting [6]); on USP30 (read-out: IC50)) were less than 500 nM, less than 0.05 µM and less than 0.05 µM, respectively.

Regarding `COc1cc(NC(=O)[C@H](CC2CCOCC2)NC(=O)c2ccc(F)cc2)ccc1S(=O)(=O)NC1COC1` [Compound I-3], the half-life at 1 μM is 2 to 6 h in data set [3], 0.25 to 2 h in data set [4] and no less than 6 h in data set [5]. For the same compound, the IC50 in data set [2] (setting [7]) was in the range of 0.05 to 1 µM. Moreover, in “Kinetic solubility”, the “Kinetic Solubility (μMol)” value is “A (solubility of ≥75.0 μMol)”.

Regarding `CC(C)C[C@H](NC(=O)c1ccc(F)cc1)C(=O)Nc1ccc(S(=O)(=O)NC(C)(C)C)cc1` [Compound I-11], the IC50 in data set [1] was less than 500 nM; in data set [2] (setting [6]), less than 0.05 µM.

Consider `CC(C)C[C@H](NC(=O)c1ccc(F)cc1)C(=O)Nc1ccc(S(=O)(=O)NC(C)(C)CCO)cc1` [Compound I-20, (S)-4-fluoro-N-(1-((4-(N-(4-hydroxy-2-methylbutan-2-yl)sulfamoyl)phenyl)amino)-4-methyl-1-oxopentan-2-yl)benzamide], for which the IC50 in data set [2] (setting [7]) lay in the range of 0.05 to 1 µM. In “Kinetic solubility”, the “Kinetic Solubility (μMol)” value was “B (solubility of ≥50.0 μMol and <75.0 μMol)”.

For the compound `CC(C)CC[C@H](NC(=O)c1ccc(F)cc1)C(=O)Nc1ccc(S(=O)(=O)NC(C)(C)C)cc1` [Compound I-23], the IC50 in data set [2] (setting [6]) was less than 0.05 µM. In addition, in “Kinetic solubility”, the “Kinetic Solubility (μMol)” value is recorded as “D (solubility of <1.0 μMol)”.

With `CN1CCC(C[C@H](NC(=O)c2ccc(F)cc2)C(=O)Nc2ccc(S(=O)(=O)NC(C)(C)C)cc2)CC1` [Compound I-41], in data set [2] (setting [7]), the IC50 was 0.05 to 1 µM. The “Kinetic Solubility (μMol)” value in the data set “Kinetic solubility” is reported as “A (solubility of ≥75.0 μMol)”.

For `CCN1CCC(C[C@H](NC(=O)c2ccc(F)cc2)C(=O)Nc2ccc(S(=O)(=O)NC(C)(C)C)cc2)CC1` [Compound I-42], in data set [2] (setting [7]), the IC50 fell in the range of 0.05 to 1 µM. Also, the “Kinetic Solubility (μMol)” value in the data set “Kinetic solubility” is “A (solubility of ≥75.0 μMol)”.

Consider `CC(C)(CCO)NS(=O)(=O)c1ccc(NC(=O)[C@H](Cc2ccc(-c3ccccc3)cc2)NC(=O)c2ccc(F)cc2)cc1` [Compound I-59], for which the IC50 in data set [2] (setting [7]) was 0.05 to 1 µM. The “Kinetic Solubility (μMol)” value in the data set “Kinetic solubility” is on record as “D (solubility of <1.0 μMol)”.

`CC(C)(C)NS(=O)(=O)c1ccc(NC(=O)[C@H](Cc2ccc(-c3ccccc3)cc2)NC(=O)c2ccc(F)cc2)cc1` [Compound I-60]: in data set [2] (setting [7]), the IC50 is 0.05 to 1 µM. Further, the “Kinetic Solubility (μMol)” value in the data set “Kinetic solubility” is recorded as “D (solubility of <1.0 μMol)”.

As for `CC(C)(C)NS(=O)(=O)c1ccc(NC(=O)[C@@H](NC(=O)c2ccc(F)cc2)C(C)(C)c2ccccc2)cc1` [Compound I-61], the IC50 in data set [2] (setting [7]) is 0.05 to 1 µM. For the same compound, in the data set “Kinetic solubility”, the “Kinetic Solubility (μMol)” value is recorded as “D (solubility of <1.0 μMol)”.

In the case of `CC(C)(CO)NS(=O)(=O)c1ccc(NC(=O)[C@@H](NC(=O)c2ccc(F)cc2)C(C)(C)c2ccccc2)cc1` [Compound I-62], the concentration for half-maximal inhibition (IC50) in data set [2] (setting [7]) lay in the range of 1 to 10 µM. Further, in “Kinetic solubility”, the “Kinetic Solubility (μMol)” value was “C (solubility ≥1.0 μMol and <50.0 μMol)”.

For the compound `O=C(N[C@@H](Cc1ccccc1)C(=O)Nc1ccc(S(=O)(=O)NC2COC2)c(O)c1)c1ccc(F)cc1` [Compound I-66], the IC50 in data set [2] (setting [7]) is 0.05 to 1 µM; on USP30 (read-out: IC50) it was less than 0.05 µM. In “Kinetic solubility”, the “Kinetic Solubility (μMol)” value is “B (solubility of ≥50.0 μMol and <75.0 μMol)”.

On to `CN1CCC(C[C@H](NC(=O)c2ccc(F)cc2)C(=O)Nc2ccc(S(=O)(=O)NC(C)(C)C)nc2)CC1` [Compound I-78], for which the IC50 was 0.05 to 1 µM in data set [2] (setting [7]) and less than 0.05 µM at USP30 (read-out: USP30 IC50 μM (avg)). Moreover, the “Kinetic Solubility (μMol)” value in the data set “Kinetic solubility” is listed as “A (solubility of ≥75.0 μMol)”.

As for `CC(C)(C)NS(=O)(=O)c1ccc(NC(=O)[C@H](CC2CCNCC2)NC(=O)c2ccc(F)cn2)cc1` [Compound I-175, (S)—N-(1-((4-(N-(tert-butyl)sulfamoyl)phenyl)amino)-1-oxo-3-(piperidin-4-yl)propan-2-yl)-5-fluoropicolinamide], the IC50 (in data set [2] (setting [6]); on USP30 (read-out: USP30 IC50 μM (avg))) was less than 0.05 µM throughout. Further, the “Kinetic Solubility (μMol)” value in “Kinetic solubility” is on record as “A (solubility of ≥75.0 μMol)”.

As for `CN1CCC(C[C@H](NC(=O)c2ccc(F)cn2)C(=O)Nc2ccc(S(=O)(=O)NC(C)(C)C)cc2)CC1` [Compound I-185, (S)—N-(1-((4-(N-(tert-butyl)sulfamoyl)phenyl)amino)-3-(1-methylpiperidin-4-yl)-1-oxopropan-2-yl)-5-fluoropicolinamide], the IC50 (in data set [2] (setting [6]); on USP30 (read-out: USP30 IC50 μM (avg))) was less than 0.05 µM throughout.

On to `CC(C)(C)NS(=O)(=O)c1ccc(NC(=O)[C@H](CC2CCNCC2)NC(=O)c2ccc(F)nc2)cc1` [Compound I-186], for which the concentration for half-maximal inhibition (IC50) (in data set [2] (setting [7]); at USP30 (read-out: USP30 IC50 μM (avg))) was 0.05 to 1 µM throughout.

Regarding `CC(C)(C)NS(=O)(=O)c1ccc(NC(=O)[C@H](CC2CCOCC2)NC(=O)c2ccc(F)nc2)cc1` [Compound I-196], the IC50 (in data set [2] (setting [6]); on USP30 (read-out: USP30 IC50 μM (avg))) was less than 0.05 µM each time.

For `CC(C)(NS(=O)(=O)c1ccc(NC(=O)[C@H](CC2CCNCC2)NC(=O)c2ccc(F)cn2)cc1)C(F)(F)F` [Compound I-199], the half-inhibitory concentration (IC50) (in data set [2] (setting [7]); on USP30 (read-out: USP30 IC50 μM (avg))) was 0.05 to 1 µM each time.

With `O=C(N[C@@H](Cc1ccccc1)C(=O)Nc1ccc(S(=O)(=O)NC2(CF)CC2)cc1)c1ccc(F)cc1` [Compound I-200], the concentration for half-maximal inhibition (IC50) in data set [2] (setting [7]) is 0.05 to 1 µM; at USP30 (read-out: USP30 IC50 μM (avg)) it was less than 0.05 µM.

With `CC(C)(NS(=O)(=O)c1ccc(NC(=O)[C@H](Cc2ccccc2)NC(=O)c2ccc(F)cn2)cc1)C(F)(F)F` [Compound I-201], the values for the IC50 (in data set [2] (setting [7]); on USP30 (read-out: USP30 IC50 μM (avg))) were 0.05 to 1 µM and less than 0.05 µM, respectively.

On to `CN1CCC(C[C@H](NC(=O)c2ccc(F)cn2)C(=O)Nc2ccc(S(=O)(=O)NC(C)(C)C(F)(F)F)cc2)CC1` [Compound I-202], for which the IC50 (in data set [2] (setting [6]); on USP30 (read-out: USP30 IC50 μM (avg))) was less than 0.05 µM in each case.

Regarding `Cn1nccc1CNS(=O)(=O)c1ccc(NC(=O)[C@H](Cc2ccccc2)NC(=O)c2ccc(F)cc2)cc1` [Compound I-205], the IC50 (in data set [2] (setting [7]); at USP30 (read-out: USP30 IC50 μM (avg))) was 0.05 to 1 µM throughout.

With `CC(C)(C)NS(=O)(=O)c1ccc(NC(=O)[C@H](CC2CCN(CCC(F)(F)F)CC2)NC(=O)c2ccc(F)cc2)cn1` [Compound I-208], the IC50 (in data set [2] (setting [7]); at USP30 (read-out: USP30 IC50 μM (avg))) was 0.05 to 1 µM throughout.

Consider `COc1cc(NC(=O)[C@H](CC2CCNCC2)NC(=O)c2ccc(F)cc2)ccc1S(=O)(=O)NC(C)(C)CF` [Compound I-209], for which the 50% inhibitory concentration (IC50) (in data set [2] (setting [7]); on USP30 (read-out: USP30 IC50 μM (avg))) was 0.05 to 1 µM throughout.

Consider `Cn1cncc1CNS(=O)(=O)c1ccc(NC(=O)[C@H](Cc2ccccc2)NC(=O)c2ccc(F)cc2)cc1` [Compound I-227], for which the IC50 (in data set [2] (setting [7]); on USP30 (read-out: USP30 IC50 μM (avg))) was 0.05 to 1 µM in each case.

Turning to `CC(=O)O[C@@H]1C[C@@H](C(=O)Nc2ccc(S(=O)(=O)NC(C)(C)C)cc2)N(C(=O)c2ccc(F)cc2)C1` [Compound I-266], the IC50 (in data set [2] (setting [7]); on USP30 (read-out: USP30 IC50 μM (avg))) was 0.05 to 1 µM in each case.

For the compound `COc1cc(NC(=O)[C@@H]2C[C@@H](c3ccccc3)CN2C(=O)c2ccc(F)cc2)ccc1S(=O)(=O)NC(C)(C)CO` [Compound I-272], the IC50 (in data set [2] (setting [7]); on USP30 (read-out: USP30 IC50 μM (avg))) was 0.05 to 1 µM in each case.

On to `Cn1ccc(N2CCC(C[C@H](NC(=O)c3ccc(F)cc3)C(=O)Nc3ccc(S(=O)(=O)NC(C)(C)C)nc3)CC2)n1` [Compound I-293], for which the IC50 (in data set [2] (setting [6]); at USP30 (read-out: USP30 IC50 μM (avg))) was less than 0.05 µM throughout.
